Legend:
EphA2 = EphA2 (Mus musculus, UniProt Q03145); experiment: Chemical proteomics pull-down with immobilized compound, LC-MS/MS identification; conditions: maximum in any chemical proteomics experiment
EphB3 = target: T1, EphB3 (Mus musculus, UniProt P54754); experiment: as above; conditions: maximum in any chemical proteomics experiment
T1 sequence (P54754 30-993): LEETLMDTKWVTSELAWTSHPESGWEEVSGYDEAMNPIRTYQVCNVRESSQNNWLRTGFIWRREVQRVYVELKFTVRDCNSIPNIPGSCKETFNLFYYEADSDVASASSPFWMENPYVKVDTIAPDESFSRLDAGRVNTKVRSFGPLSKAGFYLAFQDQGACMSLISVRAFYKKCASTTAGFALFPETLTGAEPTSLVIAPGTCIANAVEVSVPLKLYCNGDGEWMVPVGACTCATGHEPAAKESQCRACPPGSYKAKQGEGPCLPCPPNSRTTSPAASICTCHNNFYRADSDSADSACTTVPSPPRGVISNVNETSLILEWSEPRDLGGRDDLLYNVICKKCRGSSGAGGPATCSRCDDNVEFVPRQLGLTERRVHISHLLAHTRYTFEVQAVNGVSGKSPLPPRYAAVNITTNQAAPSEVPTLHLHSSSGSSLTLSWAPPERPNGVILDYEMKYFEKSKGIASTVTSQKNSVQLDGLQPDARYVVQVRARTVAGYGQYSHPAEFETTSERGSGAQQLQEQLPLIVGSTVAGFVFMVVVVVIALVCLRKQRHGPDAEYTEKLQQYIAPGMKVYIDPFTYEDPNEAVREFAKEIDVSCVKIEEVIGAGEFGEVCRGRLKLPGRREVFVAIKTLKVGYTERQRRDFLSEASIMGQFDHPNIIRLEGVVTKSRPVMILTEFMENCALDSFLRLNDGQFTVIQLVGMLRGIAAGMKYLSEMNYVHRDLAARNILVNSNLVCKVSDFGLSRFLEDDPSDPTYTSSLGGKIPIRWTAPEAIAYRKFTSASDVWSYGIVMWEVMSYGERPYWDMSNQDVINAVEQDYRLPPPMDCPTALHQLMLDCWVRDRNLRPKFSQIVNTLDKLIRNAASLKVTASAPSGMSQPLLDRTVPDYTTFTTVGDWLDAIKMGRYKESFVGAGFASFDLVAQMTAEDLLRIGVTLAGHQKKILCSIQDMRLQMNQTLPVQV

TAP-tagged Eph kinases = experiment: Autophosphorylation of TAP-tagged Eph kinases in-vitro; format: biochemical; conditions: data not shown
EphB6 = target: T2, EphB6 (Mus musculus, UniProt O08644); experiment: Chemical proteomics pull-down with immobilized compound, LC-MS/MS identification; conditions: maximum in any chemical proteomics experiment
T2 sequence (O08644 33-1014): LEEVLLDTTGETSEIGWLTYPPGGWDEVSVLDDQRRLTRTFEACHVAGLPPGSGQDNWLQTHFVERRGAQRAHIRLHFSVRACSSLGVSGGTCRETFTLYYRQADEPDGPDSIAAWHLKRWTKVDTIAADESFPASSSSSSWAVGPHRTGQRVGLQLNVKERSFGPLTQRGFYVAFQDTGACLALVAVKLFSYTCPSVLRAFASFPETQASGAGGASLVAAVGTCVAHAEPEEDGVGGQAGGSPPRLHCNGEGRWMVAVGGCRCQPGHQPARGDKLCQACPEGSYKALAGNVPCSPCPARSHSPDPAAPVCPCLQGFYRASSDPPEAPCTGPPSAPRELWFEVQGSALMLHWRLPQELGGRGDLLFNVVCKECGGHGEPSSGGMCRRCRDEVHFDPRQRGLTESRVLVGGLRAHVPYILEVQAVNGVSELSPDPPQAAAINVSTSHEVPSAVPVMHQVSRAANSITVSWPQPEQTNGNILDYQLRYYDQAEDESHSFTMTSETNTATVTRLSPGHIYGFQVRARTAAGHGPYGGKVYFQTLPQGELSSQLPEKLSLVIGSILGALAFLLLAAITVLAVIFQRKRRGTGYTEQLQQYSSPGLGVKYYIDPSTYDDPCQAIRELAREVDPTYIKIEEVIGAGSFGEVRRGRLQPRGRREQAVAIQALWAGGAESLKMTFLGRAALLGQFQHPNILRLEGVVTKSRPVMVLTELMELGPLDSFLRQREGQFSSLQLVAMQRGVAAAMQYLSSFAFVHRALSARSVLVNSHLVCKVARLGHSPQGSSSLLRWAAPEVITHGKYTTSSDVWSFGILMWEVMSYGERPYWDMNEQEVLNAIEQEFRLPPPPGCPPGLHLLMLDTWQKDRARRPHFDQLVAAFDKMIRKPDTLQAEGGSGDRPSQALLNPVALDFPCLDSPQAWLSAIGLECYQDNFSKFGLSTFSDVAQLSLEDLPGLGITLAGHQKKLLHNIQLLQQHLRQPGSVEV

Chain of EphA2 (Q03145 26-977): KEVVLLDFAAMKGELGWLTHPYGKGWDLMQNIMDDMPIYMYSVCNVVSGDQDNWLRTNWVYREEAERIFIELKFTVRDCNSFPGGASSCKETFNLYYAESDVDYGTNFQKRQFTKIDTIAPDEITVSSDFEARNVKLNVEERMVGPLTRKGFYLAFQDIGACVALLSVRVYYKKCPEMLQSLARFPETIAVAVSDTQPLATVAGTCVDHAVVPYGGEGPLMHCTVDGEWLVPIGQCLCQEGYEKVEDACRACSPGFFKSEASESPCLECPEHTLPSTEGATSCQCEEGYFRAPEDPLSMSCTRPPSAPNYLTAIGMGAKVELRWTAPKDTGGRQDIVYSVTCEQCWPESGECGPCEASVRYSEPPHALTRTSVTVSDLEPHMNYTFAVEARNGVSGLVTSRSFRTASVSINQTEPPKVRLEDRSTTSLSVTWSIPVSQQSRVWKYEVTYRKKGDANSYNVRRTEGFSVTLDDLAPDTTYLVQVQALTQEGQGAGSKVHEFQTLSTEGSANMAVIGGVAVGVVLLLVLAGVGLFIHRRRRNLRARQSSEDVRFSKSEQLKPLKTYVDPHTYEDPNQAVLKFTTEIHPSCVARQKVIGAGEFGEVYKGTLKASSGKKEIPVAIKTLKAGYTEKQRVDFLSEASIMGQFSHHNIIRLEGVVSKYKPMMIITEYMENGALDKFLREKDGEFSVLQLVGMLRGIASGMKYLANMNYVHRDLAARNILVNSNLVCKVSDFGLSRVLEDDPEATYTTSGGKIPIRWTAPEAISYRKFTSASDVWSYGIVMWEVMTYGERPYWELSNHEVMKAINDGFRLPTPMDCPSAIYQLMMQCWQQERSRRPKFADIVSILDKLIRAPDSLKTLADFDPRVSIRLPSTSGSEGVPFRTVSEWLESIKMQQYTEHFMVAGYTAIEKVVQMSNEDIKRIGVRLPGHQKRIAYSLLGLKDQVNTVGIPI

maximal number of non-redundant peptides identified, EphA2 (EphA2) | maximal number of non-redundant peptides identified, EphB3 (EphB3) | maximal number of non-redundant peptides identified, EphB6 (EphB6) | SMILES | inhibition of autophosphorylation of TAP-tagged Eph kinases in-vitro (TAP-tagged Eph kinases)
18 | 4 |  | CC(C)[C@H](CO)Nc1nc(Nc2ccc(C(=O)O)c(Cl)c2)c2ncn(C(C)C)c2n1 [Purvalanol B] | 
 | 17 | 7 | CSc1cccc(Nc2ncc3cc(-c4c(Cl)cccc4Cl)c(=O)n(C)c3n2)c1 [PD173955] | potent inhibitors

Reference: US20080213250A1, “Use of Eph Receptor Inhibitors for the Treatment of Neurodegenerative Diseases” (priority 2004, published 2008)
